Laboratory results published in US12622911B2, “Methods and compositions for the treatment of pulmonary fibrosis using volasertib” (Children's Hospital Medical Center, priority 2021, dated 2026).

Experiments:
PLK1 = PLK1 (Homo sapiens, UniProt P53350); settings: cited from earlier work
IPF fibroblasts [1] = experiment: CDK4 gene expression in IPF fibroblasts by RT-PCR; type: cell-based, human; settings: vehicle or volasertib for 16 hours, FIG. 20
[2] = tested on: TGFα-induced pulmonary fibrosis; experiment: TGFα-induced pulmonary fibrosis in TGFα mice on Dox, lung gene expression; type: in vivo; settings: volasertib 30 mg/kg QD with Dox for five days
Source text: FIG. 18. In vivo inhibition of PLK1 with volasertib attenuates ECM gene expression during TGFα-induced pulmonary fibrosis.
FIG. 19. In vivo inhibition of PLK1 with volasertib attenuates MYCN and PLK1 during TGFα induced pulmonary fibrosis.
FIG. 21. In vivo inhibition with volasertib attenuates ECM gene expression during TGFα-induced pulmonary fibrosis. *P<0.05.
(§1) Pharmacological inhibition of PLK1 attenuates the WT1-MYCN-PLK1 axis. […] To determine in vivo therapeutic effects of volasertib, TGFα mice were treated simultaneously with volasertib (30 mg/kg; QD) and Dox for five days, a period that leads to activation of WT1, MYCN and PLK1 in fibroblasts. […] Together, in vivo studies have established that inhibiting PLK1 is sufficient to attenuate the WT1-MYCN-PLK1 axis involved in fibroblast activation and pulmonary fibrosis.

IPF fibroblasts [3] = experiment: ECM-associated gene transcripts in IPF fibroblasts by RT-PCR; type: cell-based, human; settings: vehicle or volasertib for 16 hours, FIG. 16
Experimental: FIG. 16. Inhibition of PLK1 using volasertib attenuates ECM gene expression. IPF fibroblasts were treated with vehicle or volasertib for 16 hours and ECM-associated gene transcripts Col1α, Col3α1, FN1, and αSMA) were measured using RT-PCR. *p<0.05.
as §1

[4] = H&E stainings for toxicity in volasertib-treated TGFα mice; type: in vivo; settings: at the doses tested (30 mg/kg QD, five days), data not shown
Experimental: as §1

[5] = tested on: severe fibrotic lung disease; experiment: Therapeutic efficacy against severe fibrotic lung disease in two alternative mouse models (TGFα transgenic, repeated bleomycin); type: in vivo; settings: compared to FDA-approved nintedanib therapy
Source text: WT1-driven anti-apoptotic genes (BCL3, BCL2L1, etc.), MYCN, and PLK1 were previously unknown to have a role in the pathogenesis of lung scarring, in fibroproliferation, FMT, survival, and ECM production. […] A novel clinical application for volasertib in the area of pulmonary fibrosis may include volasertib therapy to prevent progression or reverse established fibrotic lung disease. Applicant's studies utilize a novel transgenic mouse model in which the pro-fibrotic growth factor TGFα is selectively and temporally overexpressed in the lung epithelium, resulting in progressive subpleural scarring, similar to the pattern seen in human IPF, and an alternative mouse model of fibrosis using repeated doses of bleomycin. Applicant's data provide compelling support that inhibiting the MYCN-PLK1 axis may be effective in arresting fibrotic lung remodeling, and may be used in patients with pulmonary fibrosis.

[6] = tested on: WT1-MYCN-PLK1 axis in IPF fibroblasts; experiment: PLK1, MYCN and WT1 protein levels in IPF fibroblast lysates by western blot; type: cell-based, human; settings: volasertib 1 μM for 48 hours, western blot normalized to GAPDH, FIG. 17
Experimental: FIG. 17. Volasertib treatment attenuates the WT1-MYCN-PLK1 axis in IPF fibroblasts. IPF fibroblasts were treated with vehicle or volasertib (1 μM) for 48 hours and measured PLK1, MYCN and WT1 protein levels in cell lysates using western blots and normalized to GAPDH. *P<0.05.
as §1

Chain of PLK1 (P53350 whole entry, species assumed): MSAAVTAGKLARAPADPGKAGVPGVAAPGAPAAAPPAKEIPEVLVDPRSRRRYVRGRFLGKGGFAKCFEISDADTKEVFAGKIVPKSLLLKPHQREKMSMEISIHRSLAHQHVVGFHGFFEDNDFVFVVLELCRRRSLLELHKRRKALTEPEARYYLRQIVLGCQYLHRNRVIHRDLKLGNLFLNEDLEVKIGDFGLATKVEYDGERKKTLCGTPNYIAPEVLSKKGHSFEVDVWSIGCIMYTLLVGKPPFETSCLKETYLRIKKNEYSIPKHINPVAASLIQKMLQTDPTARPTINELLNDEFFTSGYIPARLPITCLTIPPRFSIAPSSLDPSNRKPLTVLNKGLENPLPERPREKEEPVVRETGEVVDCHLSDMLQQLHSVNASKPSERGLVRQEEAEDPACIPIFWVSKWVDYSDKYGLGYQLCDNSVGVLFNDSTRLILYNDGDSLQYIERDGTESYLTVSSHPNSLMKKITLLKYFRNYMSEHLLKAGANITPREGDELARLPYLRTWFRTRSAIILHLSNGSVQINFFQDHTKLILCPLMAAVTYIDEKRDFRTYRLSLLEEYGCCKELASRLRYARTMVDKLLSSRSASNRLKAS

For `CC[C@@H]1C(=O)N(C)c2cnc(Nc3ccc(C(=O)N[C@H]4CC[C@H](N5CCN(CC6CC6)CC5)CC4)cc3OC)nc2N1C(C)C` [volasertib, N-[trans-4-[4-(cyclopropylmethyl)-1-piperazinyl]cyclohexyl]-4-[[(7R)-7-ethyl-5,6,7,8-tetrahydro-5-methyl-8-(1-methylethyl)-6-oxo-2-pteridinyl]amino]-3-methoxy-benzamide], which “binds and inhibits PLK1” value (PLK1) is on record?
The value was “at nanomolar doses”.

And the CDK4 gene expression (IPF fibroblasts [1])?
The CDK4 gene expression was “attenuates CDK4 gene expression”.

And the “MYCN and PLK1 levels in lungs” value ([2]; FIG. 19)?
Its value is “able to attenuate both MYCN and PLK1 levels”.

And the “ECM gene expression including Col1α1, Col3a1, and FN1” value ([2]; vs vehicle-treated fibrosis controls, FIG. 18)?
The value was “attenuated ECM gene expression”.

What about the “ECM gene expression (Col1α, Col3α1, FN1, αSMA transcripts)” value (IPF fibroblasts [3]) of the same compound?
The value was “sufficient to attenuate ECM gene expression”.

What about the “toxicity by H&E stainings” value [4] of the same compound?
Its value is “no toxicity”.

And the “therapeutic efficacy against severe fibrotic lung disease” value [5]?
Its value is “demonstrated therapeutic efficacy”.

What about the “MYCN, WT1 and PLK1 levels” value [6] of the same compound?
Its value is “sufficient to attenuate MYCN, WT1 and PLK1 levels”.
